Earlier results as cited in patent US10058616B2, “Pharmaceutical compositions to reduce complications of ocular steroid” (TAIWAN LIPOSOME COMPANY, LTD., priority 2012, dated 2018).
Read-outs that look alike come from different tables or passages of the source.

Compound	progression of cataract, patients (patients; after intravitreal steroid injection) [%]	incidence of increased IOP after intravitreal steroid injection (patients; at 3 months) [%]	incidence of increased IOP after intravitreal steroid injection (patients; at 6 months) [%]	incidence of increased IOP after intravitreal steroid injection (patients; at one month) [%]	half-life in the vitreous humor
CC1(C)O[C@@H]2C[C@H]3[C@@H]4CCC5=CC(=O)C=C[C@]5(C)[C@@]4(F)[C@@H](O)C[C@]3(C)[C@]2(C(=O)CO)O1 [triamcinolone acetonide]	22.72	75	47.05	57.69	
dexamethasone sodium phosphate [Non-associated DSP]					about 3.5 hours
